In ChEMBL document CHEMBL1201862, “PubChem BioAssay data set” (2004):
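48-hour exposure; five concentrations; linearly interpolated endpoints. GI50: concentration for 50% inhibition of growth.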 Calls of active or inactive are those of the source. Cut-off read from the data, not from the text of the source: active = GI50 up to about 1.1 µM and inactive = higher.

How the values were obtained:
Experiment in all cases: growth of human tumour cells (NCI), 48 h
786-0 = test system: 786-0
SK-MEL-5 = test system: SK-MEL-5
U-251 = test system: U-251
COLO 205 = test system: COLO 205
NCI-H23 = test system: NCI-H23
HCT-116 = test system: HCT-116
PC-3 = test system: PC-3
NCI/ADR-RES = test system: NCI/ADR-RES
MDA-N = test system: MDA-N
LOX IMVI = test system: LOX IMVI
SNB-19 = test system: SNB-19
OVCAR-3 = test system: OVCAR-3
ACHN = test system: ACHN
SF-295 = test system: SF-295
T47D = test system: T47D
BT-549 = test system: BT-549
SN12C = test system: SN12C
NCI-H460 = test system: NCI-H460
NCI-H522 = test system: NCI-H522

Measured: GI50

CN1C(=O)N/C(=C\c2ccc(S(=O)(=O)NN)cc2)C1=O
inactive: 786-0 > 100 µM | SK-MEL-5 > 100 µM | U-251 > 100 µM | COLO 205 > 100 µM | NCI-H23 > 100 µM | HCT-116 > 100 µM | PC-3 > 100 µM | NCI/ADR-RES > 100 µM | MDA-N > 100 µM | LOX IMVI > 100 µM | SNB-19 > 100 µM | OVCAR-3 > 100 µM | ACHN > 100 µM | SF-295 > 100 µM | T47D > 100 µM | BT-549 > 100 µM | SN12C > 100 µM

Oc1c(Br)cc(/C=C/c2cccc(/C=C/c3cc(Br)c(O)c(Br)c3)n2)cc1Br
inactive: 786-0 14.8 µM | SK-MEL-5 7.06 µM | U-251 9.06 µM | COLO 205 14.6 µM | HCT-116 8.81 µM | PC-3 7.52 µM | NCI/ADR-RES 21.6 µM | MDA-N 18.8 µM | LOX IMVI 13.7 µM | SNB-19 9.98 µM | OVCAR-3 14.1 µM | ACHN 6.38 µM | SF-295 7.87 µM | T47D 5.89 µM | NCI-H460 2.96 µM | BT-549 26.1 µM | SN12C 9.68 µM

Clc1ccccc1/C=c1\nc(-c2ccccc2)n2c1nc1ccccc12
inactive: 786-0 41.2 µM | SK-MEL-5 > 100 µM | U-251 21.7 µM | COLO 205 > 100 µM | NCI-H23 17.8 µM | HCT-116 35.4 µM | PC-3 4.66 µM | NCI/ADR-RES 40.9 µM | MDA-N 30.6 µM | LOX IMVI > 100 µM | SNB-19 40.3 µM | OVCAR-3 > 100 µM | ACHN > 100 µM | SF-295 10.7 µM | T47D > 100 µM | NCI-H460 > 100 µM | BT-549 18.2 µM | SN12C > 100 µM

Nc1nc(NNc2ccccc2F)cc(=O)[nH]1
inactive: 786-0 58.1 µM | SK-MEL-5 > 100 µM | U-251 82.2 µM | COLO 205 97.1 µM | HCT-116 > 100 µM | PC-3 > 100 µM | NCI/ADR-RES > 100 µM | MDA-N > 100 µM | LOX IMVI 42 µM | SNB-19 > 100 µM | OVCAR-3 > 100 µM | ACHN > 100 µM | SF-295 > 100 µM | NCI-H460 > 100 µM | BT-549 > 100 µM | SN12C > 100 µM

CCc1c(O)nc(Nc2nc3ccccc3[nH]2)[nH]c1=O
inactive: 786-0 > 100 µM | SK-MEL-5 > 100 µM | U-251 > 100 µM | COLO 205 > 100 µM | NCI-H23 > 100 µM | HCT-116 > 100 µM | NCI-H522 > 100 µM | PC-3 > 100 µM | NCI/ADR-RES > 100 µM | MDA-N > 100 µM | LOX IMVI > 100 µM | SNB-19 > 100 µM | OVCAR-3 > 100 µM | ACHN > 100 µM | SF-295 > 100 µM | NCI-H460 > 100 µM | BT-549 > 100 µM | SN12C > 100 µM

CCCCOCOc1ccccc1P1(=O)COc2ccccc2OC1
inactive: 786-0 > 100 µM | SK-MEL-5 > 100 µM | U-251 > 100 µM | COLO 205 63 µM | NCI-H23 > 100 µM | HCT-116 62.5 µM | PC-3 55.3 µM | NCI/ADR-RES > 100 µM | MDA-N > 100 µM | LOX IMVI > 100 µM | SNB-19 > 100 µM | OVCAR-3 68.7 µM | ACHN 86.7 µM | SF-295 60.5 µM | T47D 45.4 µM | NCI-H460 58.3 µM | BT-549 41.5 µM | SN12C > 100 µM

CC(=O)O[C@H]1CCC2[C@@H]3CCC4Nc5oncc5C[C@]4(C)C3CC[C@@]21C (stereo partly drawn)
inactive: 786-0 6.5 µM | SK-MEL-5 > 10 µM | U-251 > 10 µM | COLO 205 > 10 µM | NCI-H23 > 10 µM | HCT-116 6.49 µM | PC-3 > 10 µM | NCI/ADR-RES > 10 µM | MDA-N > 10 µM | LOX IMVI > 10 µM | SNB-19 > 10 µM | OVCAR-3 2.55 µM | ACHN > 10 µM | SF-295 > 10 µM | T47D > 10 µM | NCI-H460 > 10 µM | BT-549 > 10 µM | SN12C > 10 µM

O=C(COc1ccc(OCC(=O)N2C(=O)CN(c3ccc(Cl)cc3)C2=S)cc1)N1C(=O)CN(c2ccc(Cl)cc2)C1=S
inactive: 786-0 22.9 µM | SK-MEL-5 16.2 µM | U-251 24 µM | COLO 205 25.6 µM | NCI-H23 32.5 µM | HCT-116 15.7 µM | NCI-H522 26.5 µM | PC-3 23.9 µM | NCI/ADR-RES 28.7 µM | MDA-N 29.9 µM | SNB-19 24.4 µM | ACHN 26.4 µM | SF-295 29 µM | NCI-H460 23.3 µM | BT-549 31.5 µM | SN12C 30.5 µM
